Our source for the IC50 values is patent US20170334899A1, “AMINO-SUBSTITUTED ISOTHIAZOLES” (Bayer Pharma Aktiengesellschaft, priority 2014, published 2017).

SMILES strings stand for the structures. Several values for one entry are separate records, joined by “and”; a condition that tells them apart may be missing. Identical values can stand only once. Bounds are passed on as bounds.

This assay addresses T1, human kinase Mps-1 (Homo sapiens, UniProt P33981).
T1 construct: N-terminally GST-tagged human full length recombinant Mps-1 kinase; GST (N); purchased Invitrogen, Karslruhe, Germany PV4071
T1 sequence (P33981 1-857): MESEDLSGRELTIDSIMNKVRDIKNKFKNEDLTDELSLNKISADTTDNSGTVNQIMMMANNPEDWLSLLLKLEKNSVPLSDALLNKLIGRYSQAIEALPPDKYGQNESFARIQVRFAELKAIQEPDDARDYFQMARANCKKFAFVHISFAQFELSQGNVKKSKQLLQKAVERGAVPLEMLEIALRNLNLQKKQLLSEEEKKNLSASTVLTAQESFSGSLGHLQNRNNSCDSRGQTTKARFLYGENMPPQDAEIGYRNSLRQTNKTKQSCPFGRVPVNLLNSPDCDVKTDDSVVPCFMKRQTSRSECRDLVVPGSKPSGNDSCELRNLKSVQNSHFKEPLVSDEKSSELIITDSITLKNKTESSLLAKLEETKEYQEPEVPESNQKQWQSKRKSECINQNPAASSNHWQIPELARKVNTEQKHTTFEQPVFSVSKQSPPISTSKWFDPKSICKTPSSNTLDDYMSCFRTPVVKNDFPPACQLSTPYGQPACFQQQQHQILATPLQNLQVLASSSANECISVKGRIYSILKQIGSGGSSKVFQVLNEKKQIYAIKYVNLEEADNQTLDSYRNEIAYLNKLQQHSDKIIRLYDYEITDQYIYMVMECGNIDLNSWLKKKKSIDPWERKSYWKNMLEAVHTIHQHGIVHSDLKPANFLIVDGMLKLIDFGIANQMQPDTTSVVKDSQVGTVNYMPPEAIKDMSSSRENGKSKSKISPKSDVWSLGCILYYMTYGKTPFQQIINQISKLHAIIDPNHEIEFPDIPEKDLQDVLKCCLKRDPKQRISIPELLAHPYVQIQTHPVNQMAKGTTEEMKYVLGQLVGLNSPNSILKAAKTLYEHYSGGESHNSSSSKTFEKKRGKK
Briefly: Mps-1 kinase assay (TR-FRET). It is filed as biochemical. As to conditions: Mps-1 TR-FRET kinase assay; avg; read-out: Mps1 avg (IC50 [mol/l]). An outline of the steps:
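GST-tagged full-length recombinant human Mps-1 (~0.5 nM) pre-incubated 15 min with compound, then reacted 60 min at 22 °C with 10 μM ATP and 1 μM biotinylated peptide in Hepes pH 7.7 buffer. EDTA-stopped; TR-FRET (Eu anti-phospho-Ser/Thr to SA-XLent) 665/620 nm ratio normalised to no-inhibitor and no-enzyme controls.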
In the case of `Cc1nsc(Nc2cncc(C(F)(F)F)n2)c1C(=O)Nc1ccc(F)c(OC2CCN(CC(F)F)CC2)c1` [Example 268, N-(3-{[1-(2,2-difluoroethyl)piperidin-4-yl]oxy}-4-fluorophenyl)-3-methyl-5-{[6-(trifluoromethyl)pyrazin-2-yl]amino}-1,2-thiazole-4-carboxamide], the IC50 was > 20 µM.

As for `Cc1nsc(Nc2cncc(C(F)(F)F)n2)c1C(=O)Nc1ccc(F)c(OC2CCN(CCF)CC2)c1` [Example 269, N-(4-fluoro-3-{[1-(2-fluoroethyl)piperidin-4-yl]oxy}phenyl)-3-methyl-5-{[6-(trifluoromethyl)pyrazin-2-yl]amino}-1,2-thiazole-4-carboxamide], the IC50 was > 20 µM.

Turning to `Cc1nsc(Nc2cnc(C(F)(F)F)cn2)c1C(=O)Nc1ccc(C(=O)NC2CN(CC(F)(F)F)C2)cc1` [Example 270, 3-methyl-N-(4-{[1-(2,2,2-trifluoroethyl)azetidin-3-yl]carbamoyl}phenyl)-5-{[5-(trifluoromethyl)pyrazin-2-yl]amino}-1,2-thiazole-4-carboxamide], the IC50 is > 20 µM. Under `Cc1nsc(Nc2cnc(C(F)(F)F)cn2)c1C(=O)Nc1ccc(C(=O)NC2CN(CC(F)F)C2)cc1` [Example 271, N-(4-{[1-(2,2-difluoroethyl)azetidin-3-yl]carbamoyl}phenyl)-3-methyl-5-{[5-(trifluoromethyl)pyrazin-2-yl]amino}-1,2-thiazole-4-carboxamide] stands > 20 µM. For `Cc1nsc(Nc2cncc(C(F)(F)F)n2)c1C(=O)Nc1ccc(C(=O)N2CCN(CC(F)(F)F)CC2)cc1` [Example 272, 3-methyl-N-(4-{[4-(2,2,2-trifluoroethyl)piperazin-1-yl]carbonyl}phenyl)-5-{[6-(trifluoromethyl)pyrazin-2-yl]amino}-1,2-thiazole-4-carboxamide], the IC50 was > 20 µM. Regarding `Cc1nsc(Nc2cncc(C(F)(F)F)n2)c1C(=O)Nc1ccc(C(=O)N2CCN(CC(F)F)CC2)cc1` [Example 273, N-(4-{[4-(2,2-difluoroethyl)piperazin-1-yl]carbonyl}phenyl)-3-methyl-5-{[6-(trifluoromethyl)pyrazin-2-yl]amino}-1,2-thiazole-4-carboxamide], the IC50 was > 20 µM. On to `Cc1nsc(Nc2cncc(C(F)(F)F)n2)c1C(=O)Nc1ccc(C(=O)N2CCN(CCF)CC2)cc1` [Example 274, N-(4-{[4-(2-fluoroethyl)piperazin-1-yl]carbonyl}phenyl)-3-methyl-5-{[6-(trifluoromethyl)pyrazin-2-yl]amino}-1,2-thiazole-4-carboxamide], for which the IC50 is > 20 µM. Consider `CCN1CCN(C(=O)c2ccc(NC(=O)c3c(C)nsc3Nc3cncc(C(F)(F)F)n3)cc2)CC1` [Example 275, N-{4-[(4-ethylpiperazin-1-yl)carbonyl]phenyl}-3-methyl-5-{[6-(trifluoromethyl)pyrazin-2-yl]amino}-1,2-thiazole-4-carboxamide], for which the IC50 is > 20 µM. Consider `Cc1nsc(Nc2cncc(C(F)(F)F)n2)c1C(=O)Nc1ccc(OCCO)nc1` [Example 276, N-[6-(2-hydroxyethoxy)pyridin-3-yl]-3-methyl-5-{[6-(trifluoromethyl)pyrazin-2-yl]amino}-1,2-thiazole-4-carboxamide], for which the IC50 is > 20 µM.

As for `Cc1nsc(Nc2cnc(C(F)(F)F)cn2)c1C(=O)Nc1ccc(OCCO)nc1` [Example 277, N-[6-(2-hydroxyethoxy)pyridin-3-yl]-3-methyl-5-{[5-(trifluoromethyl)pyrazin-2-yl]amino}-1,2-thiazole-4-carboxamide], the IC50 is > 20 µM. As to `Cc1nsc(Nc2cncc(C(F)(F)F)n2)c1C(=O)Nc1ccc(OCCCO)nc1` [Example 278, N-[6-(3-hydroxypropoxy)pyridin-3-yl]-3-methyl-5-{[6-(trifluoromethyl)pyrazin-2-yl]amino}-1,2-thiazole-4-carboxamide], the IC50 is > 20 µM.

For `Cc1nsc(Nc2cnc(C(F)(F)F)cn2)c1C(=O)Nc1ccc(OCCCO)nc1` [Example 279, N-[6-(3-hydroxypropoxy)pyridin-3-yl]-3-methyl-5-{[5-(trifluoromethyl)pyrazin-2-yl]amino}-1,2-thiazole-4-carboxamide], the IC50 was > 20 µM.

On to `Cc1nsc(Nc2cncc(C(F)(F)F)n2)c1C(=O)Nc1ccc(C(=O)NC2CN(CC(F)(F)F)C2)cc1` [Example 280, 3-methyl-N-(4-{[1-(2,2,2-trifluoroethyl)azetidin-3-yl]carbamoyl}phenyl)-5-{[6-(trifluoromethyl)pyrazin-2-yl]amino}-1,2-thiazole-4-carboxamide], for which the IC50 is > 20 µM and 11 µM. Consider `Cc1nsc(Nc2cnc3ccccc3n2)c1C(=O)Nc1cccc(NS(=O)(=O)C2CCN(CC(F)(F)F)CC2)c1` [Example 281, 3-methyl-5-(quinoxalin-2-ylamino)-N-[3-({[1-(2,2,2-trifluoroethyl)piperidin-4-yl]sulfonyl}amino)phenyl]-1,2-thiazole-4-carboxamide], for which the IC50 was > 20 µM.

As to `Cc1nsc(Nc2cnc3ccccc3n2)c1C(=O)Nc1cccc(NS(=O)(=O)C2CCN(CC(F)F)CC2)c1` [Example 282, N-[3-({[1-(2,2-difluoroethyl)piperidin-4-yl]sulfonyl}amino)phenyl]-3-methyl-5-(quinoxalin-2-ylamino)-1,2-thiazole-4-carboxamide], the IC50 is > 20 µM. For the compound `Cc1nsc(Nc2cnc3ccccc3n2)c1C(=O)Nc1cccc(NS(=O)(=O)C2CCN(CCC(F)(F)F)CC2)c1` [Example 283, 3-methyl-5-(quinoxalin-2-ylamino)-N-[3-({[1-(3,3,3-trifluoropropyl)piperidin-4-yl]sulfonyl}amino)phenyl]-1,2-thiazole-4-carboxamide], the IC50 is > 20 µM. With `Cc1nsc(Nc2cnc(C(F)(F)F)cn2)c1C(=O)Nc1cccc(NC(=O)OC(C)(C)C)c1` [Example 284, 3-tert-butyl (3-{[(3-methyl-5-{[5-(trifluoromethyl)pyrazin-2-yl]amino}-1,2-thiazol-4-yl)carbonyl]amino}phenyl)carbamate], the IC50 was > 20 µM. With `Cc1nsc(Nc2cnc3ccccc3n2)c1C(=O)Nc1cccc(NS(=O)(=O)C2CN(CC(F)(F)F)C2)c1` [Example 285, 3-methyl-5-(quinoxalin-2-ylamino)-N-[3-({[1-(2,2,2-trifluoroethyl)azetidin-3-yl]sulfonyl}amino)phenyl]-1,2-thiazole-4-carboxamide] the figure was > 20 µM.

On to `Cc1nsc(Nc2cnc3ccccc3n2)c1C(=O)Nc1cccc(NS(=O)(=O)C2CN(CC(F)F)C2)c1` [Example 286, N-[3-({[1-(2,2-difluoroethyl)azetidin-3-yl]sulfonyl}amino)phenyl]-3-methyl-5-(quinoxalin-2-ylamino)-1,2-thiazole-4-carboxamide], for which the IC50 was found to be 14 µM. With `Cc1nsc(Nc2cnc3ccccc3n2)c1C(=O)Nc1cccc(NS(=O)(=O)C2CN(CCF)C2)c1` [Example 287, N-[3-({[1-(2-fluoroethyl)azetidin-3-yl]sulfonyl}amino)phenyl]-3-methyl-5-(quinoxalin-2-ylamino)-1,2-thiazole-4-carboxamide], the IC50 was > 20 µM. Under `Cc1nsc(Nc2cnc3ccccc3n2)c1C(=O)Nc1cccc(NS(=O)(=O)C2CN(CCC(F)(F)F)C2)c1` [Example 288, 3-methyl-5-(quinoxalin-2-ylamino)-N-[3-({[1-(3,3,3-trifluoropropyl)azetidin-3-yl]sulfonyl}amino)phenyl]-1,2-thiazole-4-carboxamide] stands > 20 µM. With `Cc1nsc(Nc2cnc3ccccc3n2)c1C(=O)Nc1cccc(NS(=O)(=O)C2CCN(CC(F)(F)F)C2)c1` (stereo not drawn) [Example 289, 3-methyl-5-(quinoxalin-2-ylamino)-N-[3-({[1-(2,2,2-trifluoroethyl)pyrrolidin-3-yl]sulfonyl}amino)phenyl]-1,2-thiazole-4-carboxamide] the figure was > 20 µM; with `Cc1nsc(Nc2cnc3ccccc3n2)c1C(=O)Nc1cccc(NS(=O)(=O)C2CCN(C(=O)OC(C)(C)C)C2)c1` (stereo not drawn) [Example 290, tert-butyl 3-{[3-({[3-methyl-5-(quinoxalin-2-ylamino)-1,2-thiazol-4-yl]carbonyl}amino)phenyl]sulfamoyl} pyrrolidine-1-carboxylate], > 20 µM.

`Cc1nsc(Nc2cnc3ccccc3n2)c1C(=O)Nc1cccc(NS(=O)(=O)C2CCCN(C(=O)OCc3ccccc3)C2)c1` (stereo not drawn) [Example 291, benzyl 3-{[3-({[3-methyl-5-(quinoxalin-2-ylamino)-1,2-thiazol-4-yl]carbonyl}amino)phenyl]sulfamoyl} piperidine-1-carboxylate]: the IC50 is > 20 µM.
